ChEMBL document CHEMBL5303304, “EUbOPEN Chemogenomics Library - IncuCyte” (2023)

Key:
Format in all cases: toxicity, cell-based
Fibroblast = experiment: Incucyte cell viability with human fibroblast; settings: 10 µM, compound concentration 10 uM
U2OS = experiment: Incucyte cell viability with U2OS; settings: human, 10 µM, compound concentration 10 uM
HEK-293T = experiment: Incucyte cell viability with HEK293T; settings: human, 10 µM, compound concentration 10 uM
Note: unitless GR value; below 1 slowed growth and below 0 cell loss.

| SMILES | Growth Rate (Fibroblast; 0 h, replicate number 2) | Growth Rate (Fibroblast; 6 h, replicate number 1) | Growth Rate (Fibroblast; 6 h, replicate number 2) | Growth Rate (Fibroblast; 12 h, replicate number 2) | Growth Rate (Fibroblast; 18 h, replicate number 2) | Growth Rate (Fibroblast; 24 h, replicate number 2) | Growth Rate (U2OS; 12 h, replicate number 1) | Growth Rate (U2OS; 18 h, replicate number 1) | Growth Rate (U2OS; 18 h, replicate number 2) | Growth Rate (U2OS; 24 h, replicate number 1) | Growth Rate (U2OS; 24 h, replicate number 2) | Growth Rate (HEK-293T; 0 h, replicate number 1) | Growth Rate (HEK-293T; 0 h, replicate number 2) | Growth Rate (HEK-293T; 18 h, replicate number 2) | Growth Rate (HEK-293T; 24 h, replicate number 2) | Growth Rate (U2OS; 0 h, replicate number 1) | Growth Rate (U2OS; 12 h, replicate number 2) | Growth Rate (HEK-293T; 6 h, replicate number 2) | Growth Rate (HEK-293T; 12 h, replicate number 2) | Growth Rate (HEK-293T; 6 h, replicate number 1) | further results |
| --- | --- | --- | --- | --- | --- | --- | --- | --- | --- | --- | --- | --- | --- | --- | --- | --- | --- | --- | --- | --- | --- |
| CCCCCCCCCCCCCC(=O)O[C@@H]1[C@@H](C)[C@@]2(O)[C@@H](C=C(CO)C[C@]3(O)C(=O)C(C)=C[C@@H]23)[C@@H]2C(C)(C)[C@]12OC(C)=O [PHORBOL MYRISTATE ACETATE] | -0.74 | 0.89 | -1 | 0.09 | 0.85 | 0.78 | 0.98 | 0.96 | 0.92 | 0.96 | 0.72 | 0.64 | -0.1 | 0.99 | 0.75 |  |  |  |  |  | Growth Rate (Fibroblast; 12 h, replicate number 1): -1; Growth Rate (U2OS; 0 h, replicate number 2): -1 |
| Cl.Cl.c1ccc2c(-c3cnn4cc(-c5ccc(N6CCNCC6)cc5)cnc34)ccnc2c1 | -0.67 | -0.76 |  |  |  |  | -0.48 | -0.35 | -0.37 | -0.32 |  | -0.16 |  | -0.48 | -0.38 | -0.92 | -0.46 | -0.92 | -0.66 |  | Growth Rate (Fibroblast; 12 h, replicate number 1): -1; Growth Rate (U2OS; 6 h, replicate number 1): -0.9; Growth Rate (U2OS; 6 h, replicate number 2): -0.64 |
| CCC(C)(C)NC(=NC#N)Nc1cccnc1 |  | -1 |  |  |  |  |  | 1 |  |  |  |  |  | 0.78 | 0.95 |  | 0.85 | 0.56 | 0.56 | 0.19 | Growth Rate (U2OS; 0 h, replicate number 2): -0.68; Growth Rate (HEK-293T; 12 h, replicate number 1): 0.42; Growth Rate (HEK-293T; 18 h, replicate number 1): 0.64; Growth Rate (HEK-293T; 24 h, replicate number 1): 0.85 |
| COCCNC1CCC(Nc2cc(-c3csc(NCC4(C#N)CCOCC4)n3)c(Cl)cn2)CC1 (stereo unspecified) |  | 0.99 |  | 0.24 | -0.14 | -0.16 |  | -0.21 | 0.04 |  | -0.03 | -0.55 | 0.97 | -0.43 | -0.35 | -1 | 0.08 | -0.42 | -0.48 | -0.19 | Growth Rate (Fibroblast; 0 h, replicate number 1): -1; Growth Rate (Fibroblast; 12 h, replicate number 1): 0.4; Growth Rate (Fibroblast; 18 h, replicate number 1): 0.16; Growth Rate (Fibroblast; 24 h, replicate number 1): 0.14; Growth Rate (U2OS; 6 h, replicate number 2): 0.51; Growth Rate (HEK-293T; 12 h, replicate number 1): -0.33; Growth Rate (HEK-293T; 18 h, replicate number 1): -0.33; Growth Rate (HEK-293T; 24 h, replicate number 1): -0.24 |
| CC1CNCCc2c1nc1ccnn1c2N1CC(C(=O)N2CCC(C)(C)C2)C1 (stereo unspecified) |  | 0.73 | -0.38 | 0.76 | 0.74 | 0.97 | 0.75 | 0.86 |  | 0.98 |  |  |  |  |  | 0.03 |  | 0.99 |  |  | Growth Rate (Fibroblast; 0 h, replicate number 1): -1; Growth Rate (Fibroblast; 12 h, replicate number 1): 0.56; Growth Rate (Fibroblast; 18 h, replicate number 1): 0.7; Growth Rate (Fibroblast; 24 h, replicate number 1): 0.84; Growth Rate (U2OS; 6 h, replicate number 1): 0.99 |
| N=C(N)NCCC[C@H](NC(=O)C(c1ccccc1)c1ccccc1)C(=O)NCc1ccc(CNC(N)=O)cc1.O=C(O)C(F)(F)F |  |  | -0.57 | 0.52 | 0.75 | 0.58 |  |  |  | 0.96 |  | 0.26 |  |  |  |  | 0.88 |  |  |  | Growth Rate (Fibroblast; 0 h, replicate number 1): -1; Growth Rate (Fibroblast; 24 h, replicate number 1): 0.9; Growth Rate (U2OS; 6 h, replicate number 1): 0.97 |
| CC(C)(C)c1cc(C(C)(C)C)c(NC(=O)c2c[nH]c3ccccc3c2=O)cc1O [IVACAFTOR] | -0.84 |  | 0.55 |  | 0.65 | 0.91 |  |  | 0.92 | 0.98 | 0.89 |  | 0.3 | 0.75 | 0.72 |  | 0.7 | 0.98 | 0.69 | 0.19 | Growth Rate (Fibroblast; 18 h, replicate number 1): 0.28; Growth Rate (U2OS; 0 h, replicate number 2): 0.5; Growth Rate (HEK-293T; 12 h, replicate number 1): 0.71; Growth Rate (HEK-293T; 18 h, replicate number 1): 0.65; Growth Rate (HEK-293T; 24 h, replicate number 1): 0.92 |
| Cl.Cl.N#Cc1ccc(O[C@@H]2c3ccccc3C[C@H]2N2CCC[C@@H](N)C2)c(Cl)c1 |  | -1 | 0.35 | 0.27 | 0.29 | 0.37 | 0.7 | 0.67 | 0.86 | 0.72 | 0.93 |  |  | -0.13 | -0.04 | -1 | 0.96 | -0.57 | -0.24 | -0.97 | Growth Rate (HEK-293T; 12 h, replicate number 1): -0.93; Growth Rate (HEK-293T; 18 h, replicate number 1): -0.77; Growth Rate (HEK-293T; 24 h, replicate number 1): -0.66 |
| c1cnc2cc3c(cc2n1)[C@@H]1CNC[C@H]3C1 [VARENICLINE] |  |  |  |  |  |  | 0.98 | 0.91 | 1 | 0.92 | 0.9 |  | 0.72 | 0.95 |  | 0.97 | 0.82 | 0.78 | 0.87 | 0.65 | Growth Rate (Fibroblast; 0 h, replicate number 1): 0.28; Growth Rate (Fibroblast; 18 h, replicate number 1): -0.31; Growth Rate (U2OS; 6 h, replicate number 2): 0.65; Growth Rate (HEK-293T; 24 h, replicate number 1): 0.99 |
| COc1ccc(N(C(=O)Nc2c(C)cccc2C)c2cc(Nc3ccc(N4CCN(C)CC4)cc3)ncn2)c(OC)c1 | -0.56 |  |  |  |  |  | 0.77 | 0.25 | 0.14 | -0.25 | -0.2 |  | 1 |  |  | 0.61 | 0.57 |  |  |  | Growth Rate (U2OS; 6 h, replicate number 1): 0.85; Growth Rate (U2OS; 6 h, replicate number 2): 0.97 |
| CCOP(=O)(OCC)C(=Cc1cc(C(C)(C)C)c(O)c(C(C)(C)C)c1)P(=O)(OCC)OCC | 0.24 | 0.57 | 0.08 |  | 0.7 |  |  |  | 0.75 |  | 0.77 | 0.16 | -0.99 | 0.79 | 0.95 |  | 0.63 | 0.25 | 0.55 |  | Growth Rate (Fibroblast; 12 h, replicate number 1): 0.78; Growth Rate (Fibroblast; 18 h, replicate number 1): 0.39; Growth Rate (Fibroblast; 24 h, replicate number 1): 0.61; Growth Rate (U2OS; 0 h, replicate number 2): 0.17; Growth Rate (U2OS; 6 h, replicate number 2): 0.36; Growth Rate (HEK-293T; 18 h, replicate number 1): 0.94 |
| Cc1[nH]nc2ccc(-c3cncc(OCC(N)Cc4ccccc4)c3)cc12 (stereo unspecified) | -0.26 | -1 |  |  |  | 0.73 |  |  | 0.7 | 0.35 | 0.28 | -0.76 | -0.85 | 0.44 | 0.21 |  |  |  |  |  | Growth Rate (HEK-293T; 24 h, replicate number 1): 0.9 |
| CC(C)(C)c1cc(NC(=O)c2csc(Nc3ccccn3)n2)no1 |  | 0.76 | -0.67 | 0.03 | 0.35 | 0.35 | 0.72 | 0.81 |  | 0.65 | 0.97 |  |  | 0.01 | 0.2 | 0.58 | 0.69 | -0.51 | -0.02 | -0.14 | Growth Rate (Fibroblast; 12 h, replicate number 1): 0.84; Growth Rate (Fibroblast; 18 h, replicate number 1): 0.21; Growth Rate (Fibroblast; 24 h, replicate number 1): 0.31; Growth Rate (U2OS; 6 h, replicate number 1): 0.51; Growth Rate (HEK-293T; 12 h, replicate number 1): 0.04; Growth Rate (HEK-293T; 18 h, replicate number 1): 0.08; Growth Rate (HEK-293T; 24 h, replicate number 1): 0.31 |
| O=C(O)CCCc1cc2cc(Cl)ccc2n1S(=O)(=O)c1ccc2ncsc2c1 [LANIFIBRANOR] | 0.65 | 0.58 | 0.28 | 0.76 |  |  | 0.94 |  |  |  |  | 0.87 | -0.8 | 0.59 | 0.63 |  |  | 0.49 | 0.73 | 0.78 |  |
| CC1(C)C[C@@H]1C(=O)N/C(=C\CCCCSC[C@H](N)C(=O)O)C(=O)O [CILASTATIN] | -0.91 |  | 0.61 |  |  | 0.83 | 0.97 | 0.9 | 0.82 | 0.9 | 0.79 | -0.01 | 0.73 |  |  |  | 0.74 | 0.55 | 0.9 | 0.74 | Growth Rate (U2OS; 0 h, replicate number 2): 0.88; Growth Rate (U2OS; 6 h, replicate number 2): 0.81 |
| O=C(O)c1ccc(OCCCc2ccc(OCCCCOC3CCCCC3)cc2)c(C(=O)NC2CCCC(C(=O)O)C2)c1 (stereo unspecified) |  |  | -0.02 | 0.19 | 0.41 | 0.73 |  |  |  | 0.89 |  | -0.01 |  | 0.94 | 0.92 |  |  |  |  | 0.96 | Growth Rate (HEK-293T; 12 h, replicate number 1): 0.94 |
